Data taken from patent US10668040B2, “Treatment of urea cycle disorders in neonates and infants” (Horizon Therapeutics, LLC, priority 2017, dated 2020).

Key:
Assay type in all cases: in vivo, human
[1] = Pharmacokinetics of HPN-100 and NaPBA, study HPN-100-005; conditions: HPN-100-005 (N = 11)
From the text: (§1) The pharmacokinetics of the short term studies can be summarized as follows. Mean exposure levels of HPN-100 metabolites PBA, PAA, and PAGN after doses of HPN-100 and NaPBA with meals (TID) in pediatric (29 days to 17 years of age) UCD patients in HPN-100-005 and HPN-100-012 studies are summarized below. The mean exposure to PBA, the parent metabolite, and mean exposure to PAGN, the terminal metabolite, show no systematic variation across age groups, while PAA exposure tended to decrease with increasing age, a finding consistent with those from population PK modeling which indicate that the rate of clearance/metabolism of PAA varies directly with body size. While systemic metabolite exposure, assessed as peak plasma concentration (Cmax) or AUC, is generally similar for HPN-100 and NaPBA, the minimum concentration (Cmin-ss) was higher—and/or percent-fluctuation less—for plasma PAGN, a finding consistent with slower gastrointestinal absorption of PBA when administered orally as HPN-100.

[2] = Pharmacokinetics of HPN-100 and NaPBA, study HPN-100-012; conditions: HPN-100-012 (N = 15)
From the text: as §1

UCD patients = assay: Example 3: rate of hyperammonemic crises (HACs)
From the text: Sixteen newborn infants aged 0 to 27 days, and 10 infants and toddlers aged 28 days to 23 months received RAVICTI Oral Liquid administered just prior to breastfeeding or intake of formula or food. The recommended dosing regimen was 3-6 times per day depending on feeding schedule.
The starting dose of RAVICTI was based on UCD status (newly diagnosed, or already stable on sodium phenylbutyrate [NaPBA] and/or sodium benzoate [NaBz]) and whether a hyperammonemic crisis was present. Subsequently, the dose may have been adjusted based on clinical and/or ammonia results, according to an algorithm provided in the protocol. […]
Hyperammonemic crisis (HAC) was defined as having signs and symptoms consistent with hyperammonemia (such as, but not limited to, frequent vomiting, nausea, headache, lethargy, irritability, combativeness, and/or somnolence) associated with high blood ammonia and requiring medical intervention. Rate of HACs prior to enrollment was calculated as sum of (number of HAC)/sum of (subject age in days at the time of enrollment or 365 days, whichever was less) across all subjects in the corresponding group. Rate of HACs per 6 months during the safety extension was calculated as sum of (number of HAC)/sum of (days during first 6 months starting on Day 8 or number days on RAVICTI, whichever is less) across all subjects in the corresponding group.

[3] = Example 3: urinary PAGN concentrations (first full day and up to end of trial)
Protocol: Urinary PAGN Concentrations on the First Full Day of RAVICTI Dosing
PK Evaluable Population: all subjects from the safety population with individual concentration-time profiles that allow computation of meaningful PK parameter values. Measurements were taken at hour 0, between 0.5 and 1.5 hours, between 1.5 and 2.5 hours, between 4 and 6 hours, between 7.5 and 8.5 hours, and between 12 and 24 hours after the first dose of the day on day 1 for stable subjects and on day 2 for subjects in HAC.
Urinary PAGN Concentrations Up to End of Trial
PK Evaluable Population: all subjects from the safety population with individual concentration-time profiles that allow computation of meaningful PK parameter values. Measurements were taken at day 7, month 1, month 2, month 3, month 4, month 5, month 6, month 9, month 12, month 15, month 18, month 24, and at the end of the trial.

## O=C(CCCc1ccccc1)OCC(COC(=O)CCCc1ccccc1)OC(=O)CCCc1ccccc1 [RAVICTI, benzenebutanoic acid, 1′,1″-(1,2,3-propanetriyl) ester]
[1]; mean (CV %)
  Plasma PAA % Fluctuation: 3483 (51.5) %
  Plasma PAA AUC0-24: 964 (63.6) μg · h/mL
  Plasma PAA CLss/F: 15082 (101.4) mL/min
  Plasma PAA Cmax-ss: 90.5 (69.1) μg/mL
  Plasma PAA Cmin-ss: 2.99 (122.1) μg/mL
  Plasma PAGN % Fluctuation: 1001 (84.5) %
  Plasma PAGN AUC0-24: 1378 (40.2) μg · h/mL
  Plasma PAGN CLss/F: 14237 (36.8) mL/min
  Plasma PAGN Cmax-ss: 105 (33.5) μg/mL
  Plasma PAGN Cmin-ss: 13.1 (64.9) μg/mL
  Plasma PBA % Fluctuation: 5690 (56.8) %
  Plasma PBA AUC0-24: 631 (44.9) μg · h/mL
  Plasma PBA CLss/F: 20545 (47.2) mL/min
  Plasma PBA Cmax-ss: 95.6 (42.0) μg/mL
  Plasma PBA Cmin-ss: 1.50 (99.8) μg/mL
  U-PAGN Ae: 12501037 (56.9) μg
  U-PAGN Ae0-12: 5611719 (74.7) μg
  U-PAGN Ae12-24: 6889318 (50.1) μg
  U-PAGN Fe0-12: 28.9 (42.1) %
  U-PAGN Fe12-24: 37.4 (32.3) %
  U-PAGN Fe % dose: 66.4 (23.9) %
[1]; median
  Plasma PAA Tmax-ss: 11.92 h
  Plasma PAGN Tmax-ss: 12.00 h
  Plasma PBA Tmax-ss: 12.00 h
[2]; mean (CV %)
  Plasma PAA % Fluctuation: 2141 (145.0) %
  Plasma PAA AUC0-24: 1096 (214.0) μg · h/mL
  Plasma PAA CLss/F: 25538 (116.8) mL/min
  Plasma PAA Cmax-ss: 84.7 (148.3) μg/mL
  Plasma PAA Cmin-ss: 26.1 (360.8) μg/mL
  Plasma PAGN % Fluctuation: 907 (116.7) %
  Plasma PAGN AUC0-24: 1131 (71.2) μg · h/mL
  Plasma PAGN CLss/F: 10830 (85.6) mL/min
  Plasma PAGN Cmax-ss: 85.5 (53.7) μg/mL
  Plasma PAGN Cmin-ss: 19.9 (173.4) μg/mL
  Plasma PBA % Fluctuation: 1781 (84.6) %
  Plasma PBA AUC0-24: 255 (54.5) μg · h/mL
  Plasma PBA CLss/F: 22610 (48.6) mL/min
  Plasma PBA Cmax-ss: 36.8 (59.0) μg/mL
  Plasma PBA Cmin-ss: 0.750 (192.7) μg/mL
[2]; median
  Plasma PAA Tmax-ss: 8.00 h
  Plasma PAGN Tmax-ss: 7.92 h
  Plasma PBA Tmax-ss: 8.00 h
UCD patients; subjects aged 0 to 27 days, 16 subjects assessed
  Rate of HACs (ratio): 0.003
UCD patients; subjects aged 2 months and up to 2 years, 6 subjects assessed
  Rate of HACs (ratio): 0.005
[3]; Age 0 to <2 months, Day 7
  Urinary PAGN concentration: 4643 (±2506); μg/mL
[3]; Age 0 to <2 months, End of trial
  Urinary PAGN concentration: 6939 (±6581); μg/mL
[3]; Age 0 to <2 months, Month 1
  Urinary PAGN concentration: 4517 (±2485), μg/mL
[3]; Age 0 to <2 months, Month 2
  Urinary PAGN concentration: 4116 (±3137); μg/mL
[3]; Age 0 to <2 months, Month 3
  Urinary PAGN concentration: 7037 (±4493); μg/mL
[3]; Age 0 to <2 months, Month 4
  Urinary PAGN concentration: 2826 (±1543); μg/mL
[3]; Age 0 to <2 months, Month 5
  Urinary PAGN concentration: 6973 (±3682); μg/mL
[3]; Age 0 to <2 months, Month 6
  Urinary PAGN concentration: 5883 (±3128); μg/mL
[3]; Age 0 to <2 months, Month 9
  Urinary PAGN concentration: 7006 (±4289); μg/mL
[3]; Age 0 to <2 months, Month 12
  Urinary PAGN concentration: 5847 (±2992); μg/mL
[3]; Age 0 to <2 months, Month 15
  Urinary PAGN concentration: 3915 (±2584); μg/mL
[3]; Age 0 to <2 months, first full day, 0.5 to 1.5 hours
  Urinary PAGN concentration: 1828 (±2862); μg/mL
[3]; Age 0 to <2 months, first full day, 1.5 to 2.5 hours
  Urinary PAGN concentration: 1746 (±1464); μg/mL
[3]; Age 0 to <2 months, first full day, 4 to 6 hours
  Urinary PAGN concentration: 2260 (±1472); μg/mL
[3]; Age 0 to <2 months, first full day, 7.5 to 8.5 hours
  Urinary PAGN concentration: 3530.43 (±3600.4), μg/mL
[3]; Age 0 to <2 months, first full day, 12 to 24 hours
  Urinary PAGN concentration: 4404 (±3766); μg/mL
[3]; Age 0 to <2 months, first full day, Hour 0
  Urinary PAGN concentration: 3530.43 (±3600.4); μg/mL
[3]; Age 2 months to <2 years, Day 7
  Urinary PAGN concentration: 8859 (±10500); μg/mL
[3]; Age 2 months to <2 years, End of trial
  Urinary PAGN concentration: 25333 (±21324); μg/mL
[3]; Age 2 months to <2 years, Month 1
  Urinary PAGN concentration: 6274 (±4802); μg/mL
[3]; Age 2 months to <2 years, Month 2
  Urinary PAGN concentration: 7386 (±6419); μg/mL
[3]; Age 2 months to <2 years, Month 3
  Urinary PAGN concentration: 11456 (±14471); μg/mL
[3]; Age 2 months to <2 years, Month 4
  Urinary PAGN concentration: 21416 (±33695); μg/mL
[3]; Age 2 months to <2 years, Month 5
  Urinary PAGN concentration: 6129 (±8024); μg/mL
[3]; Age 2 months to <2 years, Month 6
  Urinary PAGN concentration: 5347 (±3153); μg/mL
[3]; Age 2 months to <2 years, Month 9
  Urinary PAGN concentration: 9357 (±7286); μg/mL
[3]; Age 2 months to <2 years, Month 12
  Urinary PAGN concentration: 2580 (±286); μg/mL
[3]; Age 2 months to <2 years, Month 15
  Urinary PAGN concentration: 6400 (±00000); μg/mL
[3]; Age 2 months to <2 years, Month 18
  Urinary PAGN concentration: 5250 (±00000); μg/mL
[3]; Age 2 months to <2 years, first full day, 0.5 to 1.5 hours
  Urinary PAGN concentration: 4140 (±4399); μg/mL
[3]; Age 2 months to <2 years, first full day, 1.5 to 2.5 hours
  Urinary PAGN concentration: 3145 (±5045); μg/mL
[3]; Age 2 months to <2 years, first full day, 4 to 6 hours
  Urinary PAGN concentration: 5202 (±4547); μg/mL
[3]; Age 2 months to <2 years, first full day, 7.5 to 8.5 hours
  Urinary PAGN concentration: 3950 (±3068); μg/mL
[3]; Age 2 months to <2 years, first full day, 12 to 24 hours
  Urinary PAGN concentration: 7561 (±6956); μg/mL
[3]; Age 2 months to <2 years, first full day, Hour 0
  Urinary PAGN concentration: 3273 (±1993); μg/mL
